# Like-named read-outs stand apart in the source and are kept apart here.
# Biological target: T1, TAAR1 (Mus musculus, UniProt Q923Y8)
# T1 construct: expressed in transfected cells; host or cells: HEK293 cells (ATCC # CRL-1573), stably transfected with a pIRESneo2 expression plasmid; membranes prepared from them
# Assay: Radioligand binding to TAAR1, membranes of stably transfected HEK293 cells
# Experimental: For the construction of expression plasmids, the coding sequences of human, rat and mouse TAAR 1 were amplified from genomic DNA essentially as described by Lindemann et al. (2005) Genomics 85, 372-385. The Expand High Fidelity PCR System (Roche Diagnostics) was used with 1.5 mM Mg^2F and purified PCR products were cloned into pCR2.1-TOPO cloning vector (Invitrogen) following the instructions of the manufacturer. PCR products were subcloned into the pIRESneo2 vector (BD Clontech, Palo Alto, Calif.), and expression vectors were sequence verified before introduction in cell lines.
# HEK293 cells (ATCC # CRL-1573) were cultured essentially as described in Lindemann et al. (2005) Genomics 85, 372-385. For the generation of stably transfected cell lines, HEK293 cells were transfected with the pIRESneo2 expression plasmids containing the TAAR coding sequences (described above) with Lipofectamine 2000 (Invitrogen) according to the instructions of the manufacturer, and 24 hours post transfection, the culture medium was supplemented with 1 mg/ml G418 (Sigma, Buchs, Switzerland). After a culture period of about 10 days, clones were isolated, expanded and tested for responsiveness to trace amines (all compounds purchased from Sigma) with the cAMP Biotrak Enzyme immunoassay (EIA) System (Amersham) following the non-acetylation EIA procedure provided by the manufacturer.
# Cells at confluence were rinsed with ice-cold phosphate buffered saline without Ca^2+ and Mg^2+ containing 10 mM EDTA and pelleted by centrifugation at 1000 rpm for 5 minutes at 4° C. The pellet was then washed twice with ice-cold phosphate buffered saline and the cell pellet was frozen immediately by immersion in liquid nitrogen and stored until use at −80° C. The cell pellet was then suspended in 20 ml HEPES-NaOH (20 mM), pH 7.4 containing 10 mM EDTA, and homogenized with a Polytron (PT 3000, Kinematica) at 10,000 rpm for 10 seconds. The homogenate was centrifuged at 48,000×g for 30 minutes at 4° C. and the pellet resuspended in 20 ml HEPES-NaOH (20 mM), pH 7.4 containing 0.1 mM EDTA (buffer A), and homogenized with a Polytron at 10,000 rpm for 10 seconds. The homogenate was then centrifuged at 48,000×g for 30 minutes at 4° C. and the pellet resuspended in 20 ml buffer A, and homogenized with a Polytron at 10,000 rpm for 10 seconds. Protein concentration was determined by the method of Pierce (Rockford, Ill.). The homogenate was then centrifuged at 48,000×g for 10 minutes at 4° C., resuspended in HEPES-NaOH (20 mM), pH 7.0 including MgC12 (10 mM) and CaCl2 ([…]) (buffer B) at 200 μg protein per ml and homogenized with a Polytron at 10,000 rpm for 10 seconds.
# Binding assay was performed at 4° C. in a final volume of 1 ml, and with an incubation time of 30 minutes. The radioligand [^3H]-rac-2-(1,2,3,4-tetrahydro-1-naphthyl)-2-imidazoline was used at a concentration equal to the calculated Kd value of 60 nM to give a total binding at around 0.1% of the total added radioligand concentration, and a specific binding which represented approximately 70-80% of the total binding. Non-specific binding was defined as the amount of [^3H]-rac-2-(1,2,3,4-tetrahydro-1-naphthyl)-2-imidazoline bound in the presence of the appropriate unlabelled ligand (10 μM). Competing ligands were tested in a wide range of concentrations ([…]). […] Each experiment was performed in duplicate. All incubations were terminated by rapid filtration through UniFilter-96 plates (Packard Instrument Company) and glass filter GF/C, pre-soaked for at least 2 hours in polyethylenimine 0.3%, and using a Filtermate 96 Cell Harvester (Packard Instrument Company). The tubes and filters were then washed 3 times with 1 ml aliquots of cold buffer B. Filters were not dried and soaked in Ultima gold (45 μl/well, Packard Instrument Company) and bound radioactivity was counted by a TopCount Microplate Scintillation Counter (Packard Instrument Company).
# [1] = mouse TAAR1, radioligand [3H]-rac-2-(1,2,3,4-tetrahydro-1-naphthyl)-2-imidazoline at 60 nM, 4° C., 30 minutes, read-out: Ki (μM) mouse
# T1 sequence (Q923Y8 whole entry): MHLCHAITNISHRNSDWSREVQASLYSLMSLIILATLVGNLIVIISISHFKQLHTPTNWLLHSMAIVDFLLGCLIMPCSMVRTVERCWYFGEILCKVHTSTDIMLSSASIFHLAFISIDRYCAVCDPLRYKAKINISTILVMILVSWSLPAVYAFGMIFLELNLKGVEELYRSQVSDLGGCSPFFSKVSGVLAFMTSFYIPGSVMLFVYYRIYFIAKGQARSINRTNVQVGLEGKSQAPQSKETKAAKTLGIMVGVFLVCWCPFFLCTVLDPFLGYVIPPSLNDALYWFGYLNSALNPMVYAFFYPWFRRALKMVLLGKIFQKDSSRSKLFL
Compound,Ki [µM],Ki [1] [µM],further results
"CCC(Cc1cnc[nH]1)c1ccccc1 (stereo not drawn) [Example 1, 4-(2-Phenyl-butyl)-1H-imidazole]",0.0609,,
"Fc1cccc(OCc2cnc[nH]2)c1F [Example 35, 4-(2,3-Difluoro-phenoxymethyl)-1H-imidazole]",,0.0889,
"c1ncc(COc2ccc3ccoc3c2)[nH]1 [Example 39, 5-(Benzofuran-6-yloxymethyl)-1H-imidazole]",,0.0684,
"FC(F)(F)c1cccc(CCc2cnc[nH]2)c1 [Example 13, 4-[2-(3-Trifluoromethyl-phenyl)-ethyl]-1H-imidazole]",0.0106,,
"Fc1cc(OCc2cnc[nH]2)ccc1Cl [Example 37, 4-(4-Chloro-3-fluoro-phenoxymethyl)-1H-imidazole]",,0.0802,
"COc1ccccc1CCc1cnc[nH]1 [Example 8, 4-[2-(2-Methoxy-phenyl)-ethyl]-1H-imidazole]",0.0843,,
"Clc1cc(Cl)cc(CCc2cnc[nH]2)c1 [Example 17, 4-[2-(3,5-Dichloro-phenyl)-ethyl]-1H-imidazole]",0.0019,,
"c1ccc2c(c1)CCCC2C1=NCCN1 (racemic) [[^3H]-rac-2-(1,2,3,4-tetrahydro-1-naphthyl)-2-imidazoline, reference compound]",,,"Kd (radioligand used at a concentration equal to its calculated Kd, TAAR1 species not given): 60 nM"
"Clc1cccc(CCc2cnc[nH]2)c1 [Example 11, 4-[2-(3-Chloro-phenyl)-ethyl]-1H-imidazole]",0.0025,,
"c1ccc2cc(SCc3c[nH]cn3)ccc2c1 [Example 47, 4-(Naphthalen-2-ylsulfanylmethyl)-1H-imidazole]",,0.0103,
"Clc1ccc(CCc2cnc[nH]2)cc1 [Example 16, 4-[2-(4-Chloro-phenyl)-ethyl]-1H-imidazole]",0.0172,,
"Clc1ccccc1CCc1cnc[nH]1 [Example 5, 4-[2-(2-Chloro-phenyl)-ethyl]-1H-imidazole]",0.0059,,
"Fc1cccc(CCc2cnc[nH]2)c1 [Example 12, 4-[2-(3-Fluoro-phenyl)-ethyl]-1H-imidazole]",0.0097,,
"COc1cccc(CCc2cnc[nH]2)c1 [Example 14, 4-[2-(3-Methoxy-phenyl)-ethyl]-1H-imidazole]",0.0606,,
"Clc1cccc(OCc2cnc[nH]2)c1Cl [Example 20, 4-(2,3-Dichloro-phenoxymethyl)-1H-imidazole]",,0.043,
"Clc1cccc(SCc2cnc[nH]2)c1Cl [Example 42, 5-(2,3-Dichloro-phenylsulfanylmethyl)-1-imidazole]",,0.0041,
"Cc1[nH]cnc1CSc1ccc(Cl)cc1 [Example 46, 4-(4-Chloro-phenylsulfanylmethyl)-5-methyl-1H-imidazole]",,0.0146,
"Clc1ccc(OCc2cnc[nH]2)cc1Cl [Example 36, 4-(3,4-Dichloro-phenoxymethyl)-1H-imidazole]",,0.0227,

# Reference: patent US20120004230A1, “IMIDAZOLE DERIVATIVES” (priority 2006, published 2012)
